Data: ChEMBL document CHEMBL3885861, “Open TG-GATES”

Species on record: Rattus norvegicus
Assay: Open TG-GATES - Regimen: Daily Repeat
Format: toxicity, organism-based, Sprague-Dawley
Design: regimen Daily Repeat, gender Male, age 6 weeks
Conditions: in vivo, po, route gavage; for APTT / Bas / Eos / Fbg / Hb / Ht / Lym / MCHC / MCV / Mono / Neu / PT / Plat / RBC / Ret / WBC: tissue Blood; for KIDNEY_L / KIDNEY_R / KIDNEY_TOTAL: tissue Kidney; for LIVER: tissue Liver; for ALP / ALT / AST / BUN / CRE / Ca / Cl / DBIL / GLC / IP / K / LDH / Na / PL / RALB / TBIL / TG / TP / gamma-GTP: tissue Plasma
[1] = 0 mg/kg, 72 h, dose level Control, time 3 day
[2] = 0 mg/kg, […], dose level Control, time 7 day
[3] = 0 mg/kg, […], dose level Control, time 14 day
[4] = 0 mg/kg, […], dose level Control, time 28 day
[5] = 100 mg/kg, 72 h, dose level Low, time 3 day
[6] = 100 mg/kg, […], dose level Low, time 7 day
[7] = 100 mg/kg, […], dose level Low, time 14 day
[8] = 100 mg/kg, […], dose level Low, time 28 day

## CN(C)C(=N)N=C(N)N [METFORMIN]
[1]
  TERMINAL_BW: 224.4 g
  APTT: 16.8 s
  Bas: 0.2%
  Eos: 1%
  Fbg: 246.8 mg/dL
  Hb: 13.1 g/dL
  Ht: 38.7%
  Lym: 75.4%
  MCHC: 34%
  MCV: 64.1 fL
  Mono: 3.4%
  Neu: 19.6%
  PT: 12.6 s
  Plat: 121.6 x10_4/uL
  RBC: 603.2 x10_4/ul
  Ret: 6.9%
  WBC: 114.3 x10_2/uL
  KIDNEY_L: 1 g
  KIDNEY_R: 1 g
  KIDNEY_TOTAL: 2 g
  LIVER: 10.6 g
  ALP: 1345.6 IU/L
  ALT: 69.8 IU/L
  AST: 80.6 IU/L
  BUN: 13 mg/dL
  CRE: 0.2 mg/dL
  Ca: 11 mg/dL
  Cl: 104.6 meq/L
  DBIL: 0.014 mg/dL
  GLC: 184.8 mg/dL
  IP: 8.5 mg/dL
  K: 4 meq/L
  LDH: 69.8 IU/L
  Na: 140.8 meq/L
  PL: 143.6 mg/dL
  RALB: 2.5 g/dL
  TBIL: 0.034 mg/dL
  TG: 71.2 mg/dL
  TP: 5.5 g/dL
  gamma-GTP: 1 IU/L
[2]
  TERMINAL_BW: 255.4 g
  APTT: 16.6 s
  Bas: 0%
  Eos: 1.2%
  Fbg: 272.8 mg/dL
  Hb: 13.6 g/dL
  Ht: 40.1%
  Lym: 77.8%
  MCHC: 34%
  MCV: 64.1 fL
  Mono: 3%
  Neu: 17.6%
  PT: 12 s
  Plat: 126.8 x10_4/uL
  RBC: 626.4 x10_4/ul
  Ret: 6%
  WBC: 90.7 x10_2/uL
  KIDNEY_L: 1 g
  KIDNEY_R: 1 g
  KIDNEY_TOTAL: 2.1 g
  LIVER: 11.7 g
  ALP: 1433.2 IU/L
  ALT: 43.2 IU/L
  AST: 69.6 IU/L
  BUN: 16.4 mg/dL
  CRE: 0.2 mg/dL
  Ca: 11.3 mg/dL
  Cl: 105.2 meq/L
  DBIL: 0.014 mg/dL
  GLC: 187 mg/dL
  IP: 7.8 mg/dL
  K: 4.3 meq/L
  LDH: 66.6 IU/L
  Na: 141.4 meq/L
  PL: 145.2 mg/dL
  RALB: 2.7 g/dL
  TBIL: 0.034 mg/dL
  TG: 91 mg/dL
  TP: 5.9 g/dL
  gamma-GTP: 1 IU/L
[3]
  TERMINAL_BW: 310.2 g
  APTT: 18.3 s
  Bas: 0%
  Eos: 0.8%
  Fbg: 252.2 mg/dL
  Hb: 14.1 g/dL
  Ht: 40.7%
  Lym: 77.8%
  MCHC: 34.5%
  MCV: 60.5 fL
  Mono: 3.4%
  Neu: 17.4%
  PT: 12.3 s
  Plat: 123 x10_4/uL
  RBC: 674 x10_4/ul
  Ret: 4.8%
  WBC: 104.1 x10_2/uL
  KIDNEY_L: 1.2 g
  KIDNEY_R: 1.2 g
  KIDNEY_TOTAL: 2.4 g
  LIVER: 14.4 g
  ALP: 1342.2 IU/L
  ALT: 43.2 IU/L
  AST: 81 IU/L
  BUN: 16.4 mg/dL
  CRE: 0.2 mg/dL
  Ca: 11 mg/dL
  Cl: 105.2 meq/L
  DBIL: 0.014 mg/dL
  GLC: 188.2 mg/dL
  IP: 7.1 mg/dL
  K: 4 meq/L
  LDH: 168 IU/L
  Na: 142.8 meq/L
  PL: 150.6 mg/dL
  RALB: 2.7 g/dL
  TBIL: 0.034 mg/dL
  TG: 139.2 mg/dL
  TP: 6 g/dL
  gamma-GTP: 1 IU/L
[4]
  TERMINAL_BW: 386.6 g
  APTT: 17.2 s
  Bas: 0.2%
  Eos: 1.4%
  Fbg: 260 mg/dL
  Hb: 15 g/dL
  Ht: 43.2%
  Lym: 78.6%
  MCHC: 34.7%
  MCV: 56.9 fL
  Mono: 2.6%
  Neu: 16.8%
  PT: 12.1 s
  Plat: 103.4 x10_4/uL
  RBC: 759.6 x10_4/ul
  Ret: 2.5%
  WBC: 118 x10_2/uL
  KIDNEY_L: 1.4 g
  KIDNEY_R: 1.4 g
  KIDNEY_TOTAL: 2.8 g
  LIVER: 15.6 g
  ALP: 1085 IU/L
  ALT: 41.8 IU/L
  AST: 60.8 IU/L
  BUN: 16 mg/dL
  CRE: 0.2 mg/dL
  Ca: 11.1 mg/dL
  Cl: 105.4 meq/L
  DBIL: 0.014 mg/dL
  GLC: 176.2 mg/dL
  IP: 6.6 mg/dL
  K: 3.9 meq/L
  LDH: 51.8 IU/L
  Na: 145 meq/L
  PL: 143.4 mg/dL
  RALB: 2.7 g/dL
  TBIL: 0.036 mg/dL
  TG: 134.2 mg/dL
  TP: 6.1 g/dL
  gamma-GTP: 1 IU/L
[5]
  TERMINAL_BW: 222.9 g
  APTT: 16.7 s
  Bas: 0.2%
  Eos: 0.6%
  Fbg: 255 mg/dL
  Hb: 13.3 g/dL
  Ht: 39.3%
  Lym: 79%
  MCHC: 33.9%
  MCV: 64.1 fL
  Mono: 3%
  Neu: 16.6%
  PT: 12.6 s
  Plat: 114.7 x10_4/uL
  RBC: 612.6 x10_4/ul
  Ret: 6.7%
  WBC: 119.8 x10_2/uL
  KIDNEY_L: 0.9 g
  KIDNEY_R: 0.9 g
  KIDNEY_TOTAL: 1.9 g
  LIVER: 10.6 g
  ALP: 1574.6 IU/L
  ALT: 56.2 IU/L
  AST: 78.6 IU/L
  BUN: 15 mg/dL
  CRE: 0.2 mg/dL
  Ca: 11 mg/dL
  Cl: 105.6 meq/L
  DBIL: 0.012 mg/dL
  GLC: 173.2 mg/dL
  IP: 8.3 mg/dL
  K: 4 meq/L
  LDH: 80.4 IU/L
  Na: 141.8 meq/L
  PL: 141.6 mg/dL
  RALB: 2.6 g/dL
  TBIL: 0.03 mg/dL
  TG: 72.8 mg/dL
  TP: 5.5 g/dL
  gamma-GTP: 1 IU/L
[6]
  TERMINAL_BW: 255.8 g
  APTT: 18.8 s
  Bas: 0%
  Eos: 1%
  Fbg: 277.8 mg/dL
  Hb: 13.6 g/dL
  Ht: 40.1%
  Lym: 77.8%
  MCHC: 33.9%
  MCV: 63 fL
  Mono: 3.4%
  Neu: 17.8%
  PT: 12.1 s
  Plat: 130 x10_4/uL
  RBC: 638 x10_4/ul
  Ret: 5.1%
  WBC: 97.2 x10_2/uL
  KIDNEY_L: 1 g
  KIDNEY_R: 1 g
  KIDNEY_TOTAL: 2.1 g
  LIVER: 12.7 g
  ALP: 1216.2 IU/L
  ALT: 59.4 IU/L
  AST: 80.2 IU/L
  BUN: 15.2 mg/dL
  CRE: 0.2 mg/dL
  Ca: 10.8 mg/dL
  Cl: 105.8 meq/L
  DBIL: 0.012 mg/dL
  GLC: 189.8 mg/dL
  IP: 7.9 mg/dL
  K: 4.1 meq/L
  LDH: 69.6 IU/L
  Na: 142 meq/L
  PL: 144 mg/dL
  RALB: 2.6 g/dL
  TBIL: 0.028 mg/dL
  TG: 96.4 mg/dL
  TP: 5.7 g/dL
  gamma-GTP: 0.8 IU/L
[7]
  TERMINAL_BW: 319.6 g
  APTT: 17.4 s
  Bas: 0%
  Eos: 1.2%
  Fbg: 255.2 mg/dL
  Hb: 13.9 g/dL
  Ht: 40.1%
  Lym: 77.6%
  MCHC: 34.6%
  MCV: 60.5 fL
  Mono: 2.8%
  Neu: 17.6%
  PT: 12.2 s
  Plat: 122.5 x10_4/uL
  RBC: 662.2 x10_4/ul
  Ret: 5%
  WBC: 109.5 x10_2/uL
  KIDNEY_L: 1.3 g
  KIDNEY_R: 1.3 g
  KIDNEY_TOTAL: 2.6 g
  LIVER: 15.1 g
  ALP: 1413 IU/L
  ALT: 51.8 IU/L
  AST: 70.6 IU/L
  BUN: 16.2 mg/dL
  CRE: 0.2 mg/dL
  Ca: 11 mg/dL
  Cl: 104 meq/L
  DBIL: 0.014 mg/dL
  GLC: 182.4 mg/dL
  IP: 7.2 mg/dL
  K: 3.9 meq/L
  LDH: 78.6 IU/L
  Na: 142.6 meq/L
  PL: 161 mg/dL
  RALB: 2.7 g/dL
  TBIL: 0.03 mg/dL
  TG: 116 mg/dL
  TP: 6 g/dL
  gamma-GTP: 1.2 IU/L
[8]
  TERMINAL_BW: 415.8 g
  APTT: 17.7 s
  Bas: 0.2%
  Eos: 1%
  Fbg: 259.2 mg/dL
  Hb: 15 g/dL
  Ht: 43%
  Lym: 76.6%
  MCHC: 34.8%
  MCV: 56.3 fL
  Mono: 3%
  Neu: 18.6%
  PT: 11.9 s
  Plat: 100.3 x10_4/uL
  RBC: 764.2 x10_4/ul
  Ret: 2.6%
  WBC: 134 x10_2/uL
  KIDNEY_L: 1.5 g
  KIDNEY_R: 1.5 g
  KIDNEY_TOTAL: 3 g
  LIVER: 17.9 g
  ALP: 1072.4 IU/L
  ALT: 46.4 IU/L
  AST: 67.8 IU/L
  BUN: 17.4 mg/dL
  CRE: 0.2 mg/dL
  Ca: 11.2 mg/dL
  Cl: 104.6 meq/L
  DBIL: 0.014 mg/dL
  GLC: 184.2 mg/dL
  IP: 6.7 mg/dL
  K: 3.9 meq/L
  LDH: 56.8 IU/L
  Na: 145.6 meq/L
  PL: 165.4 mg/dL
  RALB: 2.8 g/dL
  TBIL: 0.04 mg/dL
  TG: 183.8 mg/dL
  TP: 6.3 g/dL
  gamma-GTP: 1 IU/L
